Reference: ChEMBL document CHEMBL1201862, “PubChem BioAssay data set” (2004)
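In this assay, cells in 96-well plates receive the compound at five concentrations for 48 hours. Endpoints are linearly interpolated between the surrounding concentrations. GI50 marks 50% less growth.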 The source made the active and inactive calls. No stated cut-off is given here; in the data, active = GI50 up to about 1.1 µM and inactive = higher.

Tests used:
Experiment in all cases: NCI tumour cell line growth inhibition, 48 h
[1] = test system: BT-549
[2] = test system: CAKI-1
[3] = test system: DU-145
[4] = test system: EKVX
[5] = test system: HCC 2998
[6] = test system: HCT-116
[7] = test system: M14
[8] = test system: MCF7
[9] = test system: OVCAR-4
[10] = test system: PC-3
[11] = test system: SF-295
[12] = test system: SF-539
[13] = test system: SK-OV-3
[14] = test system: SNB-75
[15] = test system: UACC-62
[16] = test system: LOX IMVI
[17] = test system: SK-MEL-5
[18] = test system: TK-10
[19] = test system: HL-60

Structure (SMILES)	GI50 [1]	GI50 [2]	GI50 [3]	GI50 [4]	GI50 [5]	GI50 [6]	GI50 [7]	GI50 [8]	GI50 [9]	GI50 [10]	GI50 [11]	GI50 [12]	GI50 [13]	GI50 [14]	GI50 [15]	GI50 [16]	GI50 [17]	GI50 [18]	GI50 [19]
O=[N+]([O-])/C(C(Cl)=C(Cl)Cl)=C(\Nc1cccc2cccnc12)Sc1ccccc1	21.9 µM (inactive)	22 µM (inactive)	22.9 µM (inactive)	27.4 µM (inactive)	78.2 µM (inactive)	19.4 µM (inactive)	39.3 µM (inactive)	20.8 µM (inactive)	23.1 µM (inactive)	18.8 µM (inactive)	19 µM (inactive)	20.8 µM (inactive)	34.2 µM (inactive)	23.7 µM (inactive)	11.1 µM (inactive)	–	–	–	–
CC(=O)N(C(C)=O)n1c(-c2ccccc2)n[nH]c1=O	> 100 µM (inactive)	–	> 100 µM (inactive)	> 100 µM (inactive)	> 100 µM (inactive)	> 100 µM (inactive)	> 100 µM (inactive)	> 100 µM (inactive)	> 100 µM (inactive)	> 100 µM (inactive)	> 100 µM (inactive)	> 100 µM (inactive)	> 100 µM (inactive)	> 100 µM (inactive)	> 100 µM (inactive)	> 100 µM (inactive)	> 100 µM (inactive)	> 100 µM (inactive)	–
COc1cccc(C2CC(=O)c3cc(N4CCCC4)ccc3N2)c1 (stereo not given)	0.0843 µM (active)	0.0561 µM (active)	0.0344 µM (active)	0.27 µM (active)	0.0475 µM (active)	0.0251 µM (active)	0.0234 µM (active)	0.398 µM (active)	23.3 µM (inactive)	0.022 µM (active)	0.0358 µM (active)	0.0272 µM (active)	0.043 µM (active)	–	0.0449 µM (active)	0.0516 µM (active)	0.0252 µM (active)	1.21 µM (inactive)	–
O=C1C=CC(O)C2C1CC13SSC4(CC5C(=O)C=CC(O)C5N4C1=O)C(=O)N23 (stereo not given)	1.63 µM (inactive)	0.155 µM (active)	0.354 µM (active)	0.726 µM (active)	–	< 0.0151 µM (active)	0.157 µM (active)	1.21 µM (inactive)	0.476 µM (active)	0.138 µM (active)	1.09 µM (active)	0.151 µM (active)	2.2 µM (inactive)	1.11 µM (active)	0.208 µM (active)	0.0579 µM (active)	0.412 µM (active)	0.485 µM (active)	< 0.0465 µM (active)
CC(=O)NC(Cc1c[nH]c2ccccc12)C(=O)O (stereo not given)	> 100 µM (inactive)	> 100 µM (inactive)	> 100 µM (inactive)	> 100 µM (inactive)	–	> 100 µM (inactive)	> 100 µM (inactive)	> 100 µM (inactive)	> 100 µM (inactive)	> 100 µM (inactive)	> 100 µM (inactive)	–	> 100 µM (inactive)	–	> 100 µM (inactive)	> 100 µM (inactive)	> 100 µM (inactive)	> 100 µM (inactive)	> 100 µM (inactive)
CC(O)/C=C/C1OC(=O)CC1Nc1ccc(C=O)cc1 (stereo not given)	> 100 µM (inactive)	–	> 100 µM (inactive)	> 100 µM (inactive)	> 100 µM (inactive)	> 100 µM (inactive)	22.3 µM (inactive)	55.2 µM (inactive)	> 100 µM (inactive)	> 100 µM (inactive)	28 µM (inactive)	87.1 µM (inactive)	> 100 µM (inactive)	> 100 µM (inactive)	23.7 µM (inactive)	> 100 µM (inactive)	16.6 µM (inactive)	> 100 µM (inactive)	–
